Measured values: US6416783B1, “Aspartic and malic acid inhibition of ss-glucuronidase” (Wisconsin Alumni Research Foundation, priority 1999, dated 2002)
Several values for one entry are separate records, joined by “and”; a condition that tells them apart may be missing. Identical values can stand only once. Entries after “also recorded” stand apart in the source; their conditions may differ. Like-named read-outs stand apart in the source and are kept apart here. One block for each molecule: values may come before it.

Molecular target: T1, β-glucuronidase (Homo sapiens, UniProt P08236)
T1 construct: We used human breast milk collected and pooled from a newborn nursery as the β-glucuronidase source; from tissue
T1 sequence (P08236 23-651): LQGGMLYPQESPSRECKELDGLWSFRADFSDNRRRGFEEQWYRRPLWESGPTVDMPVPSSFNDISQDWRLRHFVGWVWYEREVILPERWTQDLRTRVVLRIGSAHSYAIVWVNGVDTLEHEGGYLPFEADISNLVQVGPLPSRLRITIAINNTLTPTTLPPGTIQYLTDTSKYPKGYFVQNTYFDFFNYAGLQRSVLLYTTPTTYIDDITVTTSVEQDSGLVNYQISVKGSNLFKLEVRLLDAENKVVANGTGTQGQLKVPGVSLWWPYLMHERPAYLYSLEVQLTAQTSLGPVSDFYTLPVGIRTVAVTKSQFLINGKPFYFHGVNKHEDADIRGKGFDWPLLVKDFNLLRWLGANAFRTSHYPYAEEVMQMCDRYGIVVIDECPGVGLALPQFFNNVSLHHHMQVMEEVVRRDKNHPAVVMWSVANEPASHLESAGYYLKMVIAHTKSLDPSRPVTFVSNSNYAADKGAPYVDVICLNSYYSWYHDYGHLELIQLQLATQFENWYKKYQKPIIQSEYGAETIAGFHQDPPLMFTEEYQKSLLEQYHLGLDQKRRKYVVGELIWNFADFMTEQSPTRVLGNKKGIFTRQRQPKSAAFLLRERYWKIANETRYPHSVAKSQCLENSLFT
Test: Standard Test: β-glucuronidase activity of human breast milk with MUG substrate (fluorescence)
Type: biochemical
Conditions: for mean (X̄) activity / X (mean activity): mean of 3; for Activity (pmole/tube/hr) / β-glucuronidase activity (row unlabelled): single replicates; for concentration with significant β-glucuronidase inhibitory activity: tested 10 to 10,000 μM; for X (mean activity) / β-glucuronidase activity (row unlabelled): in pmol/tube/h
Method: We first developed a standard assay procedure (the “Standard Test”). We used human breast milk collected and pooled from a newborn nursery as the β-glucuronidase source. The samples were stored at −20° C. The milk was thawed and diluted 10× with 0.2 M sodium acetate/glacial acetic acid (NaAC) buffer pH 4.5 just prior to being used. A 4.0 mM stock solution of 4-methylumbelliferyl β-D-glucuronide (MUG, Sigma M-9130 lot#75H3777) was prepared in 0.2 M NaAC buffer pH 4.5.
Triplicate test and blank tubes contained a reaction mixture consisting of 50 μL diluted breast milk and 50 μL of an inhibitor solution diluted with 0.2 M NaAC buffer pH 4.5. Controls were prepared that contained only 50 μL diluted breast milk and 50 μL 0.2 M NaAC buffer pH 4.5. The assay was started by adding 25 μl of the MUG (4.0 mM, 0.800 mM final concentration) to the test sample to start the reaction. The final volume of the reaction was 125 μL. Both blank and test samples were vortexed and incubated at 37° C. for 1 hour (or for shorter times if indicated).
The reaction was quenched in both the test and blank samples with 3.0 ml of glycine-carbonate (320 mM: 200 mM) buffer pH 10.0. The blank samples had 25 μl of the MUG (4.0 mM, 0.800 mM final) added to them and all tubes were vortexed.
The resulting fluorescence was read using a Perkin Elmer LS5-B fluorescence spectrophotometer (360 nm excitation, 445 nm emission, autorange scale). The amount of 4-methylumbelliferone (4-MU) released by the β-glucuronidase was calculated using a 4-MU quadratic standard curve and the Mathplot software. The velocity was calculated as pmoles of 4-MU formed per hour per ml undiluted breast milk.
We diluted pooled breast milk 20× with 0.2 M NaAC buffer pH 4.5. We diluted 2.2% w/v solution of Amicase (Sigma Cat. #A2427—a mixture of free amino acids with virtually no unhydrolyzed peptides, only minimal inorganic components are present, total nitrogen ˜12.8%, amino nitrogen ˜9.8%) with buffer 5×. We then incubated 50 μl milk with 50 μl buffer and Amicase. We then added 25 μl MUG to start the reaction. We then quenched with Na-carbonate buffer pH 10.0 and read fluorescence at 360 nm ex 445 nm em. Autorange scale. The mixture of amino acids was compared to controls and Nutramigen® as follows:
We then studied the effect of specific amino acid mixtures on β-glucuronidase activity. We diluted pooled breast milk 10× with 0.2 M NaAC buffer pH 4.5 and diluted 50×stock essential amino acid solution (Sigma Cat #M7020=L-arginine.HCl 6.32 g/L, L-cystine 1.2 g/L, L-histidine.HCl.H20 2.1 g/L, L-isoleucine 2.625 g/L, L-leucine 2.62 g/L, L-lyscine.HCl 3.625 g/L, L-methionine 0.755 g/L, L-phenylalanine 1.65 g/L, L-threonine 2.38 g/L, L-tryptophane 0.51 g/L, L-tyrosine 1.8 g/L, L-valine 2.34 g/L).
We also used a non-essential AA solution=Sigma Cat #M7145=L-alanine HCl 0.89 g/L, L-asparagine.H20 1.50 g/L, L-aspartic acid 1.33 g/L, L-glutamic acid 1.47 g/L, glycine 0.75 g/L, L-proline 1.15 g/L, L-serine 1.05 g/L.
We 5×diluted 100×stock essential AA solution. We incubated 50 μl diluted milk with 50 μl buffer (control), or the essential AA solution, or the non-essential AA solution, or Nutramigen® RTU, added 25 μl MUG to start the reaction, quenched with Na-carbonate buffer, and read fluorescence (360 nm excitation: 445 nm emission). The results are as follows:
We then analyzed inhibitory effect of each of the seven amino acids in the non-essential amino acid mixture. We diluted pooled breast milk 10× with 0.2 M NaAC buffer pH 4.5, and diluted Nutramigen® RTU (N) and Nutramigen® lipid-free supernatant (LFS) 5 fold with 0.2 M NaAC buffer pH 4.5.
We prepared stock solutions of each of the non-essential amino acids L-alanine (Ala), L-asparagine (Asn), L-aspartic acid (Asp), L-glutamic acid (Glu), glycine (Gly), L-proline (Pro), and L-Serine (Ser). All solutions were at pH 4.5. The final concentration of each amino acid in the assay was the same as when the amino acids were analyzed as a mixture. […]

[1] = Example 5, Conc. 10 μm, read-out: % (activity relative to control)
[2] = Example 5, Conc. 100 μm, read-out: % (activity relative to control)
[3] = Example 5, Conc. 1,000 μm, read-out: % (activity relative to control)
[4] = Example 5, Conc. 10,000 μm, read-out: % (activity relative to control)

remaining activity at 35.6 µg/mL (Example 3, 35.6 μg/ml, read-out: % (activity relative to control)): 99.5%
mean (X̄) activity (Example 3, 35.6 μg/ml): 671.0 pmole/tube/hr
Compound: C[C@H](N)C(=O)O [Ala, L-alanine]
Activity (pmole/tube/hr) (Example 3, 35.6 μg/ml): 686.2 pmole/tube/hr and 670.9 pmole/tube/hr and 656.0 pmole/tube/hr

remaining activity at 61.4 µg/mL (Example 3, 61.4 μg/ml, read-out: % (activity relative to control)): 97.8%
mean (X̄) activity (Example 3, 61.4 μg/ml): 659.2 pmole/tube/hr
Compound: NC(=O)C[C@H](N)C(=O)O [Asn, L-asparagine]
Activity (pmole/tube/hr) (Example 3, 61.4 μg/ml): 663.2 pmole/tube/hr and 667.6 pmole/tube/hr and 646.7 pmole/tube/hr

remaining activity at 53.2 µg/mL (Example 3, 53.2 μg/ml, read-out: % (activity relative to control)): 73.7%
mean (X̄) activity (Example 3, 53.2 μg/ml): 496.5 pmole/tube/hr
potency in β-glucuronidase inhibition relative to D-aspartic acid (Example 5): approximately 100 times
remaining activity at 10 µM [1]: 97.4%
remaining activity at 100 µM [2]: 89.3%
remaining activity at 1000 µM [3]: 53%
remaining activity at 10000 µM [4]: 8.4%
mean (X̄) activity (Example 5, Conc. 10 μm): 693.9 pmole/tube/hr
mean (X̄) activity (Example 5, Conc. 100 μm): 636.4 pmole/tube/hr
mean (X̄) activity (Example 5, Conc. 1,000 μm): 377.5 pmole/tube/hr
mean (X̄) activity (Example 5, Conc. 10,000 μm): 60.2 pmole/tube/hr
concentration with significant β-glucuronidase inhibitory activity (Example 5): > 10 µM
pH of maximum inhibition of β-glucuronidase (pH experiments): ~5
Compound: N[C@@H](CC(=O)O)C(=O)O [Asp, L-aspartic acid]
effect on β-glucuronidase activity (in words): significantly inhibit β-glucuronidase; also recorded: significant β-glucuronidase inhibitory activity
Activity (pmole/tube/hr) (Example 3, 53.2 μg/ml): 494.8 pmole/tube/hr and 500.8 pmole/tube/hr and 493.9 pmole/tube/hr
Activity (pmole/tube/hr) (Example 5, Conc. 10 μm): 692.5 pmole/tube/hr and 705.8 pmole/tube/hr and 683.2 pmole/tube/hr
Activity (pmole/tube/hr) (Example 5, Conc. 100 μm): 641.0 pmole/tube/hr and 640.1 pmole/tube/hr and 628.0 pmole/tube/hr
Activity (pmole/tube/hr) (Example 5, Conc. 1,000 μm): 405.5 pmole/tube/hr and 378.0 pmole/tube/hr and 349.1 pmole/tube/hr
Activity (pmole/tube/hr) (Example 5, Conc. 10,000 μm): 62.7 pmole/tube/hr and 59.2 pmole/tube/hr and 58.6 pmole/tube/hr

remaining activity at 10 µM [1]: 98.4%
remaining activity at 100 µM [2]: 97.5%
remaining activity at 1000 µM [3]: 98.1%
remaining activity at 10000 µM [4]: 86.2%
mean (X̄) activity (Example 5, Conc. 10 μm): 701.0 pmole/tube/hr
mean (X̄) activity (Example 5, Conc. 100 μm): 694.8 pmole/tube/hr
mean (X̄) activity (Example 5, Conc. 1,000 μm): 699.2 pmole/tube/hr
mean (X̄) activity (Example 5, Conc. 10,000 μm): 614.7 pmole/tube/hr
concentration with significant β-glucuronidase inhibitory activity (Example 5): 10,000 μM
Compound: N[C@H](CC(=O)O)C(=O)O [D-asp, D-aspartic acid]
Activity (pmole/tube/hr) (Example 5, Conc. 10 μm): 706.2 pmole/tube/hr and 705.1 pmole/tube/hr and 691.7 pmole/tube/hr
Activity (pmole/tube/hr) (Example 5, Conc. 100 μm): 692.3 pmole/tube/hr and 709.8 pmole/tube/hr and 682.1 pmole/tube/hr
Activity (pmole/tube/hr) (Example 5, Conc. 1,000 μm): 704.2 pmole/tube/hr and 702.3 pmole/tube/hr and 691.2 pmole/tube/hr
Activity (pmole/tube/hr) (Example 5, Conc. 10,000 μm): 626.2 pmole/tube/hr and 614.9 pmole/tube/hr and 602.9 pmole/tube/hr

remaining activity at 100 µM (Example 4, 0.1 mM, read-out: % (activity relative to control)): 99.1%
remaining activity at 1000 µM (Example 4, 1 mM, read-out: % (activity relative to control)): 99.2%
remaining activity at 10000 µM (Example 4, 10 mM, read-out: % (activity relative to control)): 99.2%
β-glucuronidase activity, % (of control) (Example 4, 0.1, 1, 10 mM): 99%
X (mean activity) (Example 4, 0.1 mM): 820.2
X (mean activity) (Example 4, 1 mM): 812.2
X (mean activity) (Example 4, 10 mM): 820.5
β-glucuronidase activity (row unlabelled) (Example 4, 0.1 mM): 816.8 and 812.8 and 830.9
β-glucuronidase activity (row unlabelled) (Example 4, 1 mM): 825.6 and 808.7 and 802.5
β-glucuronidase activity (row unlabelled) (Example 4, 10 mM): 806.6 and 833.7 and 821.3
Compound: O=C[C@H](O)[C@@H](O)[C@@H](O)[C@H](O)CO [D-gal, D(+)galactose]

Compound: N[C@@H](CCC(=O)O)C(=O)O [Glu, L-glutamic acid]
mean (X̄) activity (Example 3, 58.8 μg/ml): 660.0 pmole/tube/hr
Activity (pmole/tube/hr) (Example 3, 58.8 μg/ml): 658.8 pmole/tube/hr and 657.5 pmole/tube/hr and 663.7 pmole/tube/hr
remaining activity at 58.8 µg/mL (read-out: % (activity relative to control)): 97.9%

remaining activity at 30 µg/mL (Example 3, 30.0 μg/ml, read-out: % (activity relative to control)): 102%
mean (X̄) activity (Example 3, 30.0 μg/ml): 685.5 pmole/tube/hr
Compound: NCC(=O)O [Gly, glycine]
Activity (pmole/tube/hr) (Example 3, 30.0 μg/ml): 674.7 pmole/tube/hr and 695.4 pmole/tube/hr and 686.5 pmole/tube/hr

Compound: O=C(O)C[C@H](O)C(=O)O [L-malic acid]
effect on β-glucuronidase activity (in words): significantly inhibit β-glucuronidase; also recorded: contributed to the inhibition of β-glucuronidase at similar concentrations to L-aspartic acid
